The record followed here is patent publication US20230295140A1, “INHIBITORS OF VAP-1” (Acucela Inc., priority 2021, published 2023).

Holding throughout (assay type): biochemical
Test [1] deals with rhVAP-1 (Homo sapiens (Human), UniProt Q16853). As to the kind of experiment: VAP-1 fluorometric assay (Amplex Red/HRP, benzylamine substrate). The following applies: class symbols, ranges defined in μM. On the procedure:
The capability of compounds described herein to inhibit the enzymatic activity of vascular adhesion protein-1 (VAP-1) was determined by fluorometric assay. The assay procedure provided by R&D Systems was modified slightly for use as an inhibitor screening assay. The assay measured the H2O2 generated from the oxidative deamination of benzylamine by rhVAP-1 by converting Amplex® Red to the fluorescent product, resorufin, via horseradish peroxidase (HRP) and H2O2. Reaction buffer was 10 mM NaHCO3, pH 7.4. A standard curve was prepared by serially diluting H2O2 in reaction buffer. A 10 μM solution of resorufin was prepared in reaction buffer and was dispensed to 2 wells. These wells served as positive control for maximum fluorescence. Reaction buffer was added to the individual wells so that the final volume in each well was 100 μL. Amplex Red was diluted to 1 mM in reaction buffer. A 10 U stock of HRP was prepared in reaction buffer. A reaction cocktail was prepared by mixing equal parts 1 mM Amplex Red with 10 U HRP with 3 parts reaction buffers. The reaction cocktail was added to the appropriate wells, so that that final concentration in the well was 0.05 mM Amplex Red and 0.5 U HRP. A 200 μM solution of benzylamine was prepared in reaction buffer. Benzylamine was added to the appropriate wells so that the final concentration was 50 μM. Inhibitors were diluted in DMSO to 20× and distributed to the appropriate wells. LJP-1207 served a positive control. rhVAP-1 was purchased from R&D Systems. The concentration used for each lot was determined so that the activity was equal to the first lot. Two wells were left blank as controls. The plate was incubated for 30 minutes at 37° C., protected from light under foil. The plate was read at 530/35 emission and 590/35 excitation. Data processing was performed using Excel and Prism software.
The capability of compounds described herein to inhibit the enzymatic activity of vascular adhesion protein-1 (VAP-1) was determined by fluorometric assay. The assay procedure provided by R&D Systems was modified slightly for use as an inhibitor screening assay. The assay measured the H2O2 generated from the oxidative deamination of benzylamine by rhVAP-1 by converting Amplex® Red to the fluorescent product, resorufin, via horseradish peroxidase (HRP) and H2O2. Amplex Red, HRP, Benzylamine, inhibitors (with DMSO as vehicle, 0.5% v/v) and rhVAP-1 were added to the wells. Assay was conducted in 10 mM NaHCO3, pH 7.4. A standard curve was prepared by serially diluting H2O2 in reaction buffer. The plate was incubated for 30 minutes at 37° C., protected from light under foil. The plate was read at 530/35 emission and 590/35 excitation. Data processing was performed using Prism software.

Test [2] concerns the target rhMAO-A (Homo sapiens (Human), UniProt P21397). As to the kind of experiment: MAO-Glo assay, MAO-A inhibition. On the procedure:
(§1) The capability of compounds described herein to inhibit MAO was determined using a modified Promega MAO-Glo™ assay kit. The substrate ((4S)-4,5-dihydro-2-(6-hydroxybenzothiazolyl)-4-thiazolecarboxylic acid) was converted by MAO to produce methyl ester luciferin. The luciferin was then converted by luciferase to produce oxyluciferin and light. The light was measured using a luminescence setting on the plate reader. A standard curve was prepared by serially diluting luciferin in reaction buffer. The standard kit reaction buffer was used—100 mM HEPES (pH 7.5), 5% glycerol. The substrate was dispensed into the wells so that the final concentration for MAO-A inhibition assay would be 10 μM and MAO-B inhibition assay would be […]. Inhibitors were diluted in DMSO to 4× and distributed to the appropriate wells. Clorgyline and Deprenyl served as positive controls. rhMAO-A and rhMAO-B were purchased from Sigma. MAO-A or MAO-B was added to the appropriate wells. The plate was incubated for 1 hour, at room temperature with gentle shaking (90 rpm). The detection agent was added at equal volume (48 μL detection agent to 48 μL reaction). The plate was incubated for 20 minutes, at room temperature with gentle shaking (90 rpm). The plate luminescence was read. Data processing was performed using Prism software.
(§2) The capability of compounds described herein to inhibit MAO was determined using a modified Promega MAO-Glo™ assay. Test compounds, substrate and enzyme were incubated per manufacturer instructions for 1 hour, at room temperature with gentle shaking (90 rpm) before addition of detection agent. The detection agent was added at equal volume (48 μL detection agent to 48 μL reaction). The plate was incubated for 20 minutes, at room temperature with gentle shaking (90 rpm). The plate luminescence was read. Data processing was performed using Prism software.

Test [3] concerns the target rhMAO-B (Homo sapiens (Human), UniProt P27338). As to the kind of experiment: MAO-Glo assay, MAO-B inhibition. As to the method:
as §1, §2

Where [4] appears, read: class symbols, ranges defined in μM.

Where a name gives a salt, the structure may show the parent alone.

Sequence of rhMAO-B (P27338 whole entry): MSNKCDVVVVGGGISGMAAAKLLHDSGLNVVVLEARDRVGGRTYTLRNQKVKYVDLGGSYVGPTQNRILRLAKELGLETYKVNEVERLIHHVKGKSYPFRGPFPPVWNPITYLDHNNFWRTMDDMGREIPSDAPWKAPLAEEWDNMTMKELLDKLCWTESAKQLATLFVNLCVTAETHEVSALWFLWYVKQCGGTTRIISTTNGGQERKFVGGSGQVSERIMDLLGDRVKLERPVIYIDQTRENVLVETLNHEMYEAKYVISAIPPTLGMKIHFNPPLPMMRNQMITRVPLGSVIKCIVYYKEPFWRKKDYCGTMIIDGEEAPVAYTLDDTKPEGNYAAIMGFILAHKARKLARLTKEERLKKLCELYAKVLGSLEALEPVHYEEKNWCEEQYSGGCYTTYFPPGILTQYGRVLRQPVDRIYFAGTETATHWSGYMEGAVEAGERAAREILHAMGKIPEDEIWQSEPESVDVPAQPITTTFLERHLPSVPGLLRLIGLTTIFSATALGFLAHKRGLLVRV
Sequence of rhMAO-A (P21397 whole entry): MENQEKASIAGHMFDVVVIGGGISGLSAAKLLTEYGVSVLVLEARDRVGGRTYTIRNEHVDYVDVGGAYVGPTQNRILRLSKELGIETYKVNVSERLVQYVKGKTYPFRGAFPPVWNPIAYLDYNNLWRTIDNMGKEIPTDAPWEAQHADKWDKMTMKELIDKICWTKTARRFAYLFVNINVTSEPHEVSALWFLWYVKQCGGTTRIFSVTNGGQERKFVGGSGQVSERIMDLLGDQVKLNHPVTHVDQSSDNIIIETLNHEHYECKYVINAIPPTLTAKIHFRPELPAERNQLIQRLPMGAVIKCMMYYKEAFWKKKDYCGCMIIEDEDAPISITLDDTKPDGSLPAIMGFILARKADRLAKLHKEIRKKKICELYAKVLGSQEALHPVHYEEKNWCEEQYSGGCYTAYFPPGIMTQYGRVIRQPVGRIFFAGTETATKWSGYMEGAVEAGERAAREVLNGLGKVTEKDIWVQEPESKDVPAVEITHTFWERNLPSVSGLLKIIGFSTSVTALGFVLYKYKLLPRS
Sequence of rhVAP-1 (Q16853 whole entry): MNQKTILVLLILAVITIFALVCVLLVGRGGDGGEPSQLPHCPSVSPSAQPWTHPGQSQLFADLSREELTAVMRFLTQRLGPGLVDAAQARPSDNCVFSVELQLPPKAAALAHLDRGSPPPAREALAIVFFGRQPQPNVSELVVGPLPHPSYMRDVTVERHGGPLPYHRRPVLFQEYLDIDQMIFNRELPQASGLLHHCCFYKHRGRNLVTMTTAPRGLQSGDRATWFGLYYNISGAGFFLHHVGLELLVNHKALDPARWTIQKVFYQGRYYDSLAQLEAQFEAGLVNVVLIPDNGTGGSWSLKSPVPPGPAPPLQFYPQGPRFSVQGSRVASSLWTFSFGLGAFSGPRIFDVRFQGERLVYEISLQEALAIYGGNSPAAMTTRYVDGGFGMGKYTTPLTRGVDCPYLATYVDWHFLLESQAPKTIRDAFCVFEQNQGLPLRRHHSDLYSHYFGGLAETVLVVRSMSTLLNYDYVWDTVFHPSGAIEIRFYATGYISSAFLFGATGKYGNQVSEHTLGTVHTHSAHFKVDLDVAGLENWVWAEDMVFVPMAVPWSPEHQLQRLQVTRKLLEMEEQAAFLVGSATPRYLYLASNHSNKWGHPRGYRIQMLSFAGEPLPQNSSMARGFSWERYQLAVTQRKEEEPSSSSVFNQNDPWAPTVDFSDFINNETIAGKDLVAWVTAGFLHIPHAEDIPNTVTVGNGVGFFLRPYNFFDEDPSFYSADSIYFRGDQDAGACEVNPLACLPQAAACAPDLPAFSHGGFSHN

As a reminder, the IC50 is the midpoint of a concentration-inhibition curve. A higher IC50 goes with lower potency. `NC/C(=C/F)COc1ccc2nc(NCCC(Cl)CCO)oc2c1` (stereo not drawn) [Example 93, (Z)-5-((6-((2-(aminomethyl)-3-fluoroallyl)oxy)benzo[d]oxazol-2-yl)amino)-3-chloropentan-1-ol 4-methylbenzenesulfonate]: the 50% inhibitory concentration (IC50) was < 0.1 µM in test [1], 1 to 10 µM in test [2] (setting [4]) and 1 to 10 µM in test [3] (setting [4]).

`COc1cc(CNc2nc3ccc(OC/C(=C\F)CN)cc3o2)ccn1` [Example 74, (Z)-6-((2-(aminomethyl)-3-fluoroallyl)oxy)-N-((2-methoxypyridin-4-yl)methyl)benzo[d]oxazol-2-amine 4-methylbenzenesulfonate]: the IC50 was < 0.1 µM in test [1], 1 to 10 µM in test [2] (setting [4]) and 1 to 10 µM in test [3] (setting [4]).

Regarding `CC(C)(C)CCCc1nc2ccc(OC/C(=C/F)CN)cc2o1` [Example 51, (E)-2-(((2-(4,4-dimethylpentyl)benzo[d]oxazol-6-yl)oxy)methyl)-3-fluoroprop-2-en-1-amine 4-methylbenzenesulfonate], the IC50 is < 0.1 µM in test [1], 1 to 10 µM in test [2] (setting [4]) and 0.1 to 1 µM in test [3] (setting [4]).

Regarding `COc1ccc(CNc2nc3ccc(OC/C(=C/F)CN)cc3o2)cc1` [Example 24, (E)-6-((2-(aminomethyl)-3-fluoroallyl)oxy)-N-(4-methoxybenzyl)benzo[d]oxazol-2-amine 4-methylbenzenesulfonate], the IC50 is < 0.1 µM in test [1], 10 to 30 µM in test [2] (setting [4]) and 0.637 µM in test [3] (number printed in cell).

In the case of `CC(C)(Nc1nc2ccc(OC/C(=C/F)CN)cc2o1)c1ccccc1` [Example 48, (E)-6-((2-(aminomethyl)-3-fluoroallyl)oxy)-N-(2-phenylpropan-2-yl)benzo[d]oxazol-2-amine 4-methylbenzenesulfonate], the IC50 was < 0.1 µM in test [1], 10 to 30 µM in test [2] (setting [4]) and 10 to 30 µM in test [3] (setting [4]).

On to `CCCCc1nc2ccc(OCCC(=CF)CN)cc2o1` [Example 38, 4-((2-butylbenzo[d]oxazol-6-yl)oxy)-2-(fluoromethylene)butan-1-amine 4-methylbenzenesulfonate], for which the values for the IC50 in test [1], in test [2] (setting [4]) and in test [3] (setting [4]) were < 0.1 µM, 0.1 to 1 µM and < 0.1 µM, respectively.

Regarding `CCCCc1nc2cc(C)c(OC/C(=C/F)CN)cc2o1` [Example 68, (E)-2-(((2-butyl-5-methylbenzo[d]oxazol-6-yl)oxy)methyl)-3-fluoroprop-2-en-1-amine 4-methylbenzenesulfonate], the figures for the 50% inhibitory concentration (IC50) in test [1], in test [2] (setting [4]) and in test [3] (setting [4]) were < 0.1 µM, 1 to 10 µM and 0.1 to 1 µM, respectively.

For the molecule `CCCCc1nc2ccc(OCC(CN)=C(F)F)cc2o1` [Example 32, 2-(((2-butylbenzo[d]oxazol-6-yl)oxy)methyl)-3,3-difluoroprop-2-en-1-amine hydrochloride], the results for the IC50 in test [1], in test [2] (setting [4]) and in test [3] (setting [4]) were < 0.1 µM, 10 to 30 µM and 10 to 30 µM, respectively.

Regarding `CCCCc1nc2ccc(CC(=CF)CN)cc2o1` [Example 18, 2-((2-butylbenzo[d]oxazol-6-yl)methyl)-3-fluoroprop-2-en-1-amine], the results for the IC50 in test [1], in test [2] (setting [4]) and in test [3] (setting [4]) were < 0.1 µM, 1 to 10 µM and 0.1 to 1 µM, respectively.

For `NC/C(=C\F)COc1ccc2nc(NCCCO)sc2c1` [Example 88, (E)-3-((6-((2-(aminomethyl)-3-fluoroallyl)oxy)benzo[d]thiazol-2-yl)amino)propan-1-ol 4-methylbenzenesulfonate], the IC50 in test [1] is < 0.1 µM; in test [2] (setting [4]) it was 1 to 10 µM; in test [3] (setting [4]), 1 to 10 µM.

`CCCCc1nc2ccc(COC/C(=C/F)CN)cc2o1` [Example 28, (E)-2-(((2-butylbenzo[d]oxazol-6-yl)methoxy)methyl)-3-fluoroprop-2-en-1-amine]: the figures for the IC50 in test [1], in test [2] (setting [4]) and in test [3] (setting [4]) were < 0.1 µM, 10 to 30 µM and < 0.1 µM, respectively.

For the molecule `CC(C)(C)Nc1nc2ccc(OC/C(=C/F)CN)cc2o1` [Example 39, (E)-6-((2-(aminomethyl)-3-fluoroallyl)oxy)-N-(tert-butyl)benzo[d]oxazol-2-amine 4-methylbenzenesulfonate], the IC50 in test [1] was < 0.1 µM; in test [2] (setting [4]), 10 to 30 µM; in test [3] (setting [4]), 1 to 10 µM.

As to `COc1ccc(CNc2nc3ccc(OC/C(=C\F)CN)cc3o2)cn1` [Example 76, (Z)-6-((2-(aminomethyl)-3-fluoroallyl)oxy)-N-((6-methoxypyridin-3-yl)methyl)benzo[d]oxazol-2-amine 4-methylbenzenesulfonate], the IC50 was < 0.1 µM in test [1], 1 to 10 µM in test [2] (setting [4]) and 1 to 10 µM in test [3] (setting [4]).

For the molecule `CCCCc1nc2ccc(OC/C(=C/F)CN)c(Br)c2s1` [Example 7, (E)-2-(((7-bromo-2-butylbenzo[d]thiazol-6-yl)oxy)methyl)-3-fluoroprop-2-en-1-amine], the IC50 in test [1], in test [2] (setting [4]) and in test [3] (setting [4]) was < 0.1 µM each time.

In the case of `CCCCc1nc2ccc(OC/C(=C\F)CN)cc2o1` [Example 19, (Z)-2-(((2-butylbenzo[d]oxazol-6-yl)oxy)methyl)-3-fluoroprop-2-en-1-amine 4-methylbenzenesulfonate], the half-maximal inhibitory concentration (IC50) in test [1] is < 0.1 µM; in test [2] (setting [4]) it was 1 to 10 µM; in test [3] (setting [4]), 0.1 to 1 µM.

Take `Cc1ncccc1CNc1nc2ccc(OC/C(=C\F)CN)cc2o1` [Example 69, (Z)-6-((2-(aminomethyl)-3-fluoroallyl)oxy)-N-((2-methylpyridin-3-yl)methyl)benzo[d]oxazol-2-amine 4-methylbenzenesulfonate]: the IC50 in test [1] was < 0.1 µM; in test [2] (bound printed in cell), > 50 µM; in test [3] (setting [4]), 1 to 10 µM.

Take `CCCCc1nc2ccc(OC/C(=C/F)CN)cc2[nH]1` [Example 13, (E)-2-(((2-butyl-1H-benzo[d]imidazol-6-yl)oxy)methyl)-3-fluoroprop-2-en-1-amine 4-methylbenzenesulfonate]: the figures for the IC50 in test [1], in test [2] (bound printed in cell) and in test [3] (setting [4]) were < 0.1 µM, > 50 µM and 1 to 10 µM, respectively.

`NC/C(=C\F)COc1ccc2nc(NCCO)oc2c1` [Example 47, (E)-2-((6-((2-(aminomethyl)-3-fluoroallyl)oxy)benzo[d]oxazol-2-yl)amino)ethan-1-ol 4-methylbenzenesulfonate]: the IC50 in test [1] is < 0.1 µM; in test [2] (setting [4]), 10 to 30 µM; in test [3] (setting [4]), 10 to 30 µM.

As for `CNC(=O)CN(Cc1ccccc1)c1nc2ccc(OC/C(=C/F)CN)cc2o1` [Example 53, (E)-2-((6-((2-(aminomethyl)-3-fluoroallyl)oxy)benzo[d]oxazol-2-yl)(benzyl)amino)-N-methylacetamide 4-methylbenzenesulfonate], the results for the IC50 in test [1], in test [2] (bound printed in cell) and in test [3] (bound printed in cell) were < 0.1 µM, > 50 µM and > 50 µM, respectively.

`NC/C(=C\F)COc1ccc2nc(NCc3ccccc3)oc2c1` [Example 21, (E)-6-((2-(aminomethyl)-3-fluoroallyl)oxy)-N-benzylbenzo[d]oxazol-2-amine 4-methylbenzenesulfonate]: the IC50 in test [1] is < 0.1 µM; in test [2] (setting [4]) it was 10 to 30 µM; in test [3] (setting [4]), 0.1 to 1 µM.
